From article PMC12753220, “A new amidohydrolase and β-oxidation–like pathway for piperine catabolism in soil actinomycetes” (The Journal of Biological Chemistry, 2025)

Biological target: T1, PipM (piperine hydrolase) (Rhodococcus erythropolis, UniProt Z9TMQ3P3F8)
T1 construct: full length, no signal peptide, untagged (pET24a(+)-pipM), E. coli Rosetta2 (DE3); ORF 1389 nt (462 residues deduced), ~50 kDa monomer, homotetramer ~220 kDa; N-terminus of native protein NSFALSNV
T1 sequence (Z9TMQ3P3F8 1-462): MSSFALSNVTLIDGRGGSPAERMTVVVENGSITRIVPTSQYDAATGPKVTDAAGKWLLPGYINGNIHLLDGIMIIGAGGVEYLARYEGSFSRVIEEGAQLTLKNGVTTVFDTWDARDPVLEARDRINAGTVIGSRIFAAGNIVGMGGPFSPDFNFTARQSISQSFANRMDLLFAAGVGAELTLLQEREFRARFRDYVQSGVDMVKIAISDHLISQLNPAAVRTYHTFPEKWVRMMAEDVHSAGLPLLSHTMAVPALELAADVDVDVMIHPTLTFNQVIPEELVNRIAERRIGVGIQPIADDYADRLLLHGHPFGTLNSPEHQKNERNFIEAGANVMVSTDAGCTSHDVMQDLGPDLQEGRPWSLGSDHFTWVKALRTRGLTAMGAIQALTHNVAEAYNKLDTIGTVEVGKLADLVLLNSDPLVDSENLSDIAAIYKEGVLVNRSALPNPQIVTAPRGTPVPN
Assay: HPLC at […] nm of piperic acid formation, Michaelis-Menten fit
Format: biochemical
Settings: 50 mM potassium phosphate pH 7.5, 28 °C, 1 min, 0.116 μM PipM, 0.001-0.5 mM piperine

Q: `O=C(/C=C/C=C/c1ccc2c(c1)OCO2)N1CCCCC1` [piperine] was tested. Which Km did it give?
A: 2.11 ± 0.31 µM
